Data on 24 molecules can be found in patent US20080242663A1, “NOVEL PYRIMIDINE DERIVATIVES 698” (ASTRAZENECA AB, priority 2007, published 2008).

The experiment addresses T1, recombinant EphB4 (Homo sapiens, UniProt P54760).
T1 construct: amino acids 563-987; Swiss-Prot Acc; No. P54760; purchased ProQinase GmbH 0178-0000-3
T1 sequence (P54760 563-987): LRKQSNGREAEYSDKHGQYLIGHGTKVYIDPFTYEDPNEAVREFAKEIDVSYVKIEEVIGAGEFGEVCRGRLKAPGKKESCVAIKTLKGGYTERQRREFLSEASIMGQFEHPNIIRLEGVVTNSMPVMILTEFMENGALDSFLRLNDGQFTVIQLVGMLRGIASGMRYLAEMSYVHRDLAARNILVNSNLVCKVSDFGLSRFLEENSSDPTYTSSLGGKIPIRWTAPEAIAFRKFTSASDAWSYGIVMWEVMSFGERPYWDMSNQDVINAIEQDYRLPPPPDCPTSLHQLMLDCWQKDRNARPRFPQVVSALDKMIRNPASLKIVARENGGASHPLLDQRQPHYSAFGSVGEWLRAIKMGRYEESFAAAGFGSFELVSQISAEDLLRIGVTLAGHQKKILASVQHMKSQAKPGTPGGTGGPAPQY
Kind of experiment: In vitro EphB4 enzyme assay (Alphascreen). The class given is biochemical. The method, then:
This assay detects inhibitors of EphB4-mediated phosphorylation of a polypeptide substrate using Alphascreen™ luminescence detection technology. Briefly, recombinant EphB4 was incubated with a biotinylated-polypeptide substrate (biotin-poly-GAT) in presence of magnesium-ATP. The reaction was stopped by addition of EDTA, together with streptavidin-coated donor beads which bind the biotin-substrate containing any phosphorylated tyrosine residues. Anti-phosphotyrosine antibodies present on acceptor beads bind to phosphorylated substrate, thus bringing the donor & acceptor beads into close proximity. Subsequent excitation of the donor beads at 680 nm generated singlet oxygen species that interact with a chemiluminescer on the acceptor beads, leading to light emission at 520-620 nm. The signal intensity is directly proportional to the level of substrate phosphorylation and thus inhibition is measured by a decrease in signal.
Assay plates were then incubated at room temperature for 1 hr. […] The plates were sealed under natural lighting conditions, wrapped in aluminium foil and incubated in the dark for a further 20 hrs.
The resulting assay signal was determined on the Perkin Elmer EnVision plate reader. The minimum value was subtracted from all values, and the signal plotted against compound concentration to generate IC50 data.
In general terms: In Alpha technology, singlet oxygen from a donor bead excites a nearby acceptor bead.
Consider `COCc1cc(Nc2nccc(N(C)c3ccc(F)c(Cl)c3F)n2)cc(N2CCOCC2)c1` [Example 2.14, N′-(3-chloro-2,4-difluoro-phenyl)-N-[3-(methoxymethyl)-5-morpholin-4-yl-phenyl]-N′-methyl-pyrimidine-2,4-diamine], for which the concentration for half-maximal inhibition (IC50) (as a rule, the midpoint of a concentration-inhibition curve) stood at 653 nM.

With `CCOCCOc1cc(Nc2nccc(N(C)c3cc(CO)ccc3C)n2)cc(N2CCOCC2)c1` [Example 17.7, [3-[[2-[[3-(2-ethoxyethoxy)-5-morpholin-4-yl-phenyl]amino]pyrimidin-4-yl]-methyl-amino]-4-methyl-phenyl]methanol], the IC50 came out at 639 nM.

For the molecule `CN(c1ccnc(Nc2cc(CO)cc(N3CCOCC3)c2)n1)c1ccc(F)c(Cl)c1F` [Example 2.7, [3-[[4-[(3-chloro-2,4-difluoro-phenyl)-methyl-amino]pyrimidin-2-yl]amino]-5-morpholin-4-yl-phenyl] methanol], the IC50 came to 117 nM.

Take `CCN(c1ccnc(Nc2cc(N3CCOCC3)cc(S(C)(=O)=O)c2)n1)c1cc(CO)ccc1C` [Example 8.1, [3-[ethyl-[2-[(3-methylsulfonyl-5-morpholin-4-yl-phenyl)amino]pyrimidin-4-yl]amino]-4-methyl-phenyl]methanol]: the IC50 came out at 414 nM.

In the case of `CC(C)NC(=O)c1cc(Nc2nccc(N(C)c3cccc(Cl)c3)n2)cc(N2CCOCC2)c1` [Example 19.14, 3-[[4-[(3-chlorophenyl)-methyl-amino]pyrimidin-2-yl]amino]-5-morpholin-4-yl-N-propan-2-yl-benzamide], the half-inhibitory concentration (IC50) is 1180 nM.

For `CN(c1ccnc(Nc2cc(N3CCOCC3)cc(N3CCOCC3)c2)n1)c1ccc(Cl)cc1Cl` [Example 15.1, N′-(2,4-dichlorophenyl)-N-(3,5-dimorpholin-4-ylphenyl)-N′-methyl-pyrimidine-2,4-diamine], the 50% inhibitory concentration (IC50) came to 34100 nM.

`COc1ccc(C)c(N(C)c2ccnc(Nc3cc(N4CCOCC4)cc(N4CCC(O)CC4)c3)n2)c1` [Example 12.5, 1-(3-(4-((5-methoxy-2-methylphenyl)(methyl)amino)pyrim-idin-2-ylamino)-5-morpholinophenyl)piperidin-4-ol]: the IC50 turned out to be 2.95 nM.

Turning to `CN(c1ccnc(Nc2cc(N3CCOCC3)cc(N3CCSCC3)c2)n1)c1ccc(F)c(Cl)c1F` [Example 1, N′-(3-chloro-2,4-difluoro-phenyl)-N′-methyl-N-(3-morpholin-4-yl-5-thiomorpholin-4-yl-phenyl)pyrimidine-2,4-diamine], the IC50 was determined as 763 nM.

For `COc1ccc(C)c(N(C)c2ccnc(Nc3cc(N4CCNCC4)cc(N4CCOCC4)c3)n2)c1` [Example 12.6, N4-(5-methoxy-2-methylphenyl)-N4-methyl-N2-(3-morpholino-5-(piperazin-1-yl)phenyl)pyrimidine-2,4-diamine], the IC50 worked out at 3.4 nM.

In the case of `Cc1ccc(CO)cc1N(CC(C)C)c1ccnc(Nc2cc(N3CCOCC3)cc(S(C)(=O)=O)c2)n1` [Example 8.3, [4-methyl-3-[2-methylpropyl-[2-[(3-methylsulfonyl-5-morpholin-4-yl-phenyl)amino]pyrimidin-4-yl]amino]phenyl]methanol], the half-inhibitory concentration (IC50) is 917 nM.

Take `Cc1ccc(CO)cc1N(C)c1ccnc(Nc2cc(OCC3CC3)cc(N3CCOCC3)c2)n1` [Example 17.4]: the concentration for half-maximal inhibition (IC50) turned out to be 1090 nM.

On to `Cc1ccc(CO)cc1N(CC1CC1)c1ccnc(Nc2cc(N3CCOCC3)cc(S(C)(=O)=O)c2)n1` [Example 8.4, [3-[cyclopropyl-methyl-[2-[(3-methylsulfonyl-5-morpholin-4-yl-phenyl)amino]pyrimidin-4-yl]amino]-4-methyl-phenyl]methanol], for which the half-maximal inhibitory concentration (IC50) was 1070 nM.

Consider `CN(c1cccc(Cl)c1)c1ccnc(Nc2cc(N3CCOCC3)cc(N3CCC(O)CC3)c2)n1` [Example 23, 1-[3-({4-[(3-chlorophenyl)(methyl)amino]pyrimidin-2-yl}amino)-5-morpholin-4-ylphenyl]piperidin-4-ol], for which the IC50 was 1.71 nM.

As for `Cc1ccc(CO)cc1N(C)c1ccnc(Nc2cc(N3CCOCC3)cc(N3CCOC[C@@H]3C)c2)n1` [Example 7.17, (S)-(4-methyl-3-(methyl(2-(3-(3-methylmorpholino)-5-morpholinophenyl-amino)pyrimidin-4-yl)amino)phenyl)methanol], the IC50 came out at 3.13 nM.

As for `CN(c1ccnc(Nc2cc(CN3CCOCC3)cc(N3CCOCC3)c2)n1)c1ccc(F)c(Cl)c1F` [Example 2.16, N′-(3-chloro-2,4-difluoro-phenyl)-N′-methyl-N-[3-morpholin-4-yl-5-(morpholin-4-ylmethyl)phenyl]py-rimidine-2,4-diamine], the IC50 is 307 nM.

`Cc1ccc(CO)cc1N(C)c1ccnc(Nc2cc(N3CCOCC3)cc(N3CC[C@H](O)C3)c2)n1` [Example 7.9, (3S)-1-[3-[[4-[[5-(hydroxymethyl)-2-methyl-phenyl]-methyl-amino]pyrimidin-2-yl]amino]-5-morpholin-4-yl-phenyl]pyrrolidin-3-ol]: the IC50 was determined as 151 nM.

`CN(c1cccc(Cl)c1)c1ccnc(Nc2cc(C(=O)N3CCOCC3)cc(N3CCOCC3)c2)n1` [Example 19.10, [3-[[4-[(3-chlorophenyl)-methyl-amino]pyrimidin-2-yl]amino]-5-morpholin-4-yl-phenyl]-morpholin-4-yl-methanone]: the half-maximal inhibitory concentration (IC50) was determined as 656 nM.

As for `Cc1ccc(CO)cc1N(C)c1ccnc(Nc2cc(C(=O)NCC(C)C)cc(N3CCOCC3)c2)n1` [Example 18.3, 3-[[4-[[5-(hydroxymethyl)-2-methyl-phenyl]-methyl-amino]pyrimidin-2-yl]amino]-N-(2-methylpropyl)-5-morpholin-4-yl-benzamide], the half-maximal inhibitory concentration (IC50) was 246 nM.

With `Cc1ccc(CO)cc1N(C)c1ccnc(Nc2cc(C(=O)N(C)C)cc(N3CCOCC3)c2)n1` [Example 7.11, 3-[[4-[[5-(hydroxymethyl)-2-methyl-phenyl]-methyl-amino]pyrimidin-2-yl]amino]-N,N-dimethyl-5-morpholin-4-yl-benzamide], the concentration for half-maximal inhibition (IC50) came out at 60.1 nM.

Regarding `COc1ccccc1N(C)c1ccnc(Nc2cc(N3CCOCC3)cc(N3CCOCC3)c2)n1` [Example 10.12, N-(3,5-dimorpholin-4-ylphenyl)-N′-(2-methoxyphenyl)-N′-methyl-pyrimidine-2,4-diamine], the IC50 came out at 107 nM.

On to `COCCOc1cc(Nc2nccc(N(C)c3ccc(F)c(Cl)c3F)n2)cc(N2CCOCC2)c1` [Example 2.9, N′-(3-chloro-2,4-difluoro-phenyl)-N-[3-(2-methoxyethoxy)-5-morpholin-4-yl-phenyl]-N′-methyl-pyrimidine-2,4-diamine], for which the concentration for half-maximal inhibition (IC50) was determined as 781 nM.

Consider `CN(c1cccc(Cl)c1)c1ccnc(Nc2cc(C(=O)NC(C)(C)C)cc(N3CCOCC3)c2)n1` [Example 19.20, 3-[[4-[(3-chlorophenyl)-methyl-amino]pyrimidin-2-yl]amino]-5-morpholin-4-yl-N-tert-butyl-benzamide], for which the IC50 was 3090 nM.

Take `Cc1ccc(CO)cc1N(C)c1ccnc(Nc2cc(N3CCOCC3)cc(N3CCC(O)CC3)c2)n1` [Example 7.8, 1-[3-[[4-[[5-(hydroxymethyl)-2-methyl-phenyl]-methyl-amino]pyrimidin-2-yl]amino]-5-morpholin-4-yl-phenyl]piperidin-4-ol]: the IC50 amounted to 75.9 nM.

Consider `COCCNC(=O)c1cc(Nc2nccc(N(C)c3cccc(Cl)c3)n2)cc(N2CCOCC2)c1` [Example 19.18, 3-[[4-[(3-chlorophenyl)-methyl-amino]pyrimidin-2-yl]amino]-N-(2-methoxyethyl)-5-morpholin-4-yl-benzamide], for which the IC50 stood at 614 nM.
